Key:
Assay in all cases: biochemical
Parameters in all cases: Kinase selectivity panel of 81 human kinases, ADP-Glo or HTRF, per cent inhibition at 1 uM
[1] = target: CDK1/CycE1 (Homo sapiens, UniProt P06493)
Description: (§1) We next sought to determine the binding affinity of Zharp1-163 for RIPK1 or RIPK3 via a binding assay (Fig. 4A). […] Further, we evaluated the selectivity of Zharp1-163 against a panel of 81 kinases (at 1000 nM). […] To elucidate the binding interactions between Zharp1-163 and RIPK1 kinase, we conducted molecular docking studies using the RIPK1 crystal structure (PDB ID: 4NEU). The predicted binding conformations and interaction patterns between Zharp1-163 and the RIPK1 kinase domain are presented in Fig. 4D, E. Like the cocrystallized ligand in the 4NEU crystal complex, Zharp1-163 was predicted to act as a typical type II kinase inhibitor, interacting with the DLG (Asp156-Leu157-Gly158)-out conformation of RIPK1 (Fig. 4D, E). The 2-aminoimidazo [1,2-a] pyridine moiety of Zharp1-163 formed hydrogen bonds with Met95 in the hinge region. Furthermore, the carboxylate group of Zharp1-163 established hydrogen bonds with Asp156 in the DLG-out region. Additionally, the saturated ring of Zharp1-163 was deeply embedded within the hydrophobic allosteric pocket formed by the residues Met66, Met67, Leu70, Val76, Leu129, and Leu159, which is created by the DLG-out conformation in RIPK1 (Fig. 4D, E).  Fig. 4 Zharp1-163 is a selective inhibitor of RIPK1 kinase activity. A Binding affinity curve of Zharp1-163 with RIPK1 and RIPK3. B In an in vitro kinase activity assay, recombinant RIPK1 was incubated with Zharp1-163, after which RIPK1 kinase activity was determined by measuring ATP levels via a luciferase reporter assay system. […] Kinases are marked with dots, where the color of each kinase indicates the level of inhibition achieved by Zharp1-163. D Predicted binding conformation of Zharp1-163. E Schematic representation of the interaction patterns between Zharp1-163 and the key residues in the binding pocket of the RIPK1 kinase. […] NIH3T3-RIPK3 cells were pretreated with the indicated concentrations of Zharp1-163 for 2 h and then treated with AP20187 (100 nM) for 24 h. Cell viability was determined by measuring ATP levels. […] HeLa-MLKL (1–190) cells were pretreated with the indicated concentrations of Zharp1-163 for 2 h and subsequently treated with AP20187 (100 nM) for 24 h. Cell viability was determined by measuring ATP levels. H Viability of IFNβ-primed MEFs at 18 h after stimulation with poly(I:C) plus z-VAD and treatment with Zharp1-163 (10 μM). I Effects of different concentrations of Zharp1-163 on WT or RIPK1 KO HT-29 cells. Cell viability was determined by measuring ATP levels. The data are presented as the mean ± SD of triplicate samples.

[2] = target: T1, CHK1 (Homo sapiens, UniProt O14757)
T1 construct: gene CHEK1
Description: as §1

[3] = target: T2, CaMK1α (Homo sapiens, UniProt Q14012)
T2 construct: gene CAMK1
Description: as §1

[4] = target: IGF1R (Homo sapiens, UniProt P08069)
Description: as §1

[5] = target: IRAK1 (Homo sapiens, UniProt P51617)
Description: as §1

[6] = target: ITK (Homo sapiens, UniProt Q08881)
Description: as §1

[7] = target: T3, JNK1 (Homo sapiens, UniProt P45983)
T3 construct: gene MAPK8
Description: as §1

[8] = target: MAP2K1 (Homo sapiens, UniProt Q02750)
Description: as §1

[9] = target: MAPKAPK2 (Homo sapiens, UniProt P49137)
Description: as §1

[10] = target: MARK4 (Homo sapiens, UniProt Q96L34)
Description: as §1

[11] = target: MET (Homo sapiens, UniProt P08581)
Description: as §1

[12] = target: T4, PKCα (Homo sapiens, UniProt P17252)
T4 construct: gene PRKCA
Description: as §1

[13] = target: T5, TRKB (Homo sapiens, UniProt Q16620)
T5 construct: gene NTRK2
Description: as §1

[14] = target: T6, TSSK1 (Homo sapiens, UniProt Q9BXA7)
T6 construct: gene TSSK1B
Description: as §1

Chain of MAPKAPK2 (P49137 whole entry): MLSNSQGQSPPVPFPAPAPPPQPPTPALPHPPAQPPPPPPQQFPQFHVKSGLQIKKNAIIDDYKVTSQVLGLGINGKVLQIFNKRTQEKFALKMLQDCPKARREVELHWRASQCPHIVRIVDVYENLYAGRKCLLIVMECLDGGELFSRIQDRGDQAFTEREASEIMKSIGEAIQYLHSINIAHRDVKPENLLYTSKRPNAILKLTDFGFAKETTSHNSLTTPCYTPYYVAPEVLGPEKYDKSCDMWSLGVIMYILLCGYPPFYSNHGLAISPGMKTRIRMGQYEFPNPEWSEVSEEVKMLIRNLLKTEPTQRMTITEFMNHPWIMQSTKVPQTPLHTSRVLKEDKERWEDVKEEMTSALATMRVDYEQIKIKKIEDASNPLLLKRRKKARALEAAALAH
Chain of CDK1/CycE1 (P06493 whole entry, the tested form may be a part): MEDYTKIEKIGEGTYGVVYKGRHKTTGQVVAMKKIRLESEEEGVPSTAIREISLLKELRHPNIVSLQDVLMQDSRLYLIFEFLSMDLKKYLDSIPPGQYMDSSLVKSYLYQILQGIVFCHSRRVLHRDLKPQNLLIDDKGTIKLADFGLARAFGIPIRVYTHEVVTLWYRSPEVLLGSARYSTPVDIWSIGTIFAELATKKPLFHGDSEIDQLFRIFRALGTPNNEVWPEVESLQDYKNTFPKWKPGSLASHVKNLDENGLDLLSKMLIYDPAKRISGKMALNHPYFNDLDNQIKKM
Chain of CDK1/CycE1 (P24864 whole entry partner, the tested form may be a part): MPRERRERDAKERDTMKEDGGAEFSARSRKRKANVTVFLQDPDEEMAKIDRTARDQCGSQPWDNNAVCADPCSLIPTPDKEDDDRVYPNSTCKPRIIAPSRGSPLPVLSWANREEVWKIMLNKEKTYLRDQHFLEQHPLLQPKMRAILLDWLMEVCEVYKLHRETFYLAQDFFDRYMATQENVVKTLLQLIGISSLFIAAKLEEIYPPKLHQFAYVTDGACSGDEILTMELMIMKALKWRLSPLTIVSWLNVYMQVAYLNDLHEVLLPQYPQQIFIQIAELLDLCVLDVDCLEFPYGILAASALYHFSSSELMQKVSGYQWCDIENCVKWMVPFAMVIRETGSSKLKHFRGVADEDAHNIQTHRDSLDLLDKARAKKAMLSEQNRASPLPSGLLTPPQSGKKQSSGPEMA
Chain of MARK4 (Q96L34 whole entry): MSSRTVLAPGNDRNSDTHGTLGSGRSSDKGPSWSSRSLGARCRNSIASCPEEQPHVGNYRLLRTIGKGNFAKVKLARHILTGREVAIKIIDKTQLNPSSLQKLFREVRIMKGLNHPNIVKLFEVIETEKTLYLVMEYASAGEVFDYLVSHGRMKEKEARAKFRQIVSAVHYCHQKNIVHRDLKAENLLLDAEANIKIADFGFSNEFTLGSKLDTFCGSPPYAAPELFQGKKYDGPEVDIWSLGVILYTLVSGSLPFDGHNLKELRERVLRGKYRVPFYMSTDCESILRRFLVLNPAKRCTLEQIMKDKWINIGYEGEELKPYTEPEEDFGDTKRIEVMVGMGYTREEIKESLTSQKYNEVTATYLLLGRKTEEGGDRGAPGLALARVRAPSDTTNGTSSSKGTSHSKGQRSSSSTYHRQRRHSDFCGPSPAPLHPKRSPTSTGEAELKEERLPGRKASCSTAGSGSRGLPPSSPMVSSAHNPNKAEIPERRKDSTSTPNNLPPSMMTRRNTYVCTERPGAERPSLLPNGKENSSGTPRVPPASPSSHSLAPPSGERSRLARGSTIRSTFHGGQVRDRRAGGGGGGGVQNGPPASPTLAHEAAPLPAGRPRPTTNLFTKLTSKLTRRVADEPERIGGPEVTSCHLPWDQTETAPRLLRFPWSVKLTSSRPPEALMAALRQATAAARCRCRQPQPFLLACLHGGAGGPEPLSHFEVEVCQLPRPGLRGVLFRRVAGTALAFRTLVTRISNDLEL
Chain of IGF1R (P08069 whole entry): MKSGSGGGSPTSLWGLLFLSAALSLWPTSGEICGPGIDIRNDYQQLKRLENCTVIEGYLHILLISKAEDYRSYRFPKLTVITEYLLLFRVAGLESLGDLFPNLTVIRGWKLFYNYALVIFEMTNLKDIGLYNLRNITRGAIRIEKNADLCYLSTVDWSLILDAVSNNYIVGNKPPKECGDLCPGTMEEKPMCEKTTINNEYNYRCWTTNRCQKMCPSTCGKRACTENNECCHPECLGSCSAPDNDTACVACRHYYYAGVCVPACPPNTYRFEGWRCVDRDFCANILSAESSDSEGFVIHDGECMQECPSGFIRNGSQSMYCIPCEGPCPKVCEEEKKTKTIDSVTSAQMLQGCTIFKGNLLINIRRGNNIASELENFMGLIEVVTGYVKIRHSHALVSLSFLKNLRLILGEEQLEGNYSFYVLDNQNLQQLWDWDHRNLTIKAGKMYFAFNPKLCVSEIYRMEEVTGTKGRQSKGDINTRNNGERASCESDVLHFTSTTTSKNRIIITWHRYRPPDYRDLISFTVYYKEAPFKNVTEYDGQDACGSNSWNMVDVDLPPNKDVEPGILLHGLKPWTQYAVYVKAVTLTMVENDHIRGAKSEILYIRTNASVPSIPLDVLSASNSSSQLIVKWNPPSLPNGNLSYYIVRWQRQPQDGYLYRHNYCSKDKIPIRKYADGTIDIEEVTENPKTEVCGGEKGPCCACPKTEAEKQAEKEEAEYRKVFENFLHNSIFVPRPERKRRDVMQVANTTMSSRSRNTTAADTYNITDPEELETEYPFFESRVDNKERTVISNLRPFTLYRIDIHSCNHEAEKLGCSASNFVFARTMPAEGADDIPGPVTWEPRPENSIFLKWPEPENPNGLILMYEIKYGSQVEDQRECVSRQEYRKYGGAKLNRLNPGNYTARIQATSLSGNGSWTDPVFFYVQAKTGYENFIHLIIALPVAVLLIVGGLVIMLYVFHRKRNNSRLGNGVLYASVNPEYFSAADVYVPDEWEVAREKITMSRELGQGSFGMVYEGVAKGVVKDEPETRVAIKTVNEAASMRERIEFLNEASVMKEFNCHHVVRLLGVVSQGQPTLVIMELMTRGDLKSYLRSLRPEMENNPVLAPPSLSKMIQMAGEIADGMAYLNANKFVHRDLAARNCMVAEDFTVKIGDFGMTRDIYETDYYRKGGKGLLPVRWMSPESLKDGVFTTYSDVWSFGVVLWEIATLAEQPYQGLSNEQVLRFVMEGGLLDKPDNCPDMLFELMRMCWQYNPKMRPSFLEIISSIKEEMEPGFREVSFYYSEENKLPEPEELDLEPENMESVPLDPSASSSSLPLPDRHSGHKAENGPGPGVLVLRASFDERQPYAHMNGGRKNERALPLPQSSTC
Chain of MET (P08581 whole entry): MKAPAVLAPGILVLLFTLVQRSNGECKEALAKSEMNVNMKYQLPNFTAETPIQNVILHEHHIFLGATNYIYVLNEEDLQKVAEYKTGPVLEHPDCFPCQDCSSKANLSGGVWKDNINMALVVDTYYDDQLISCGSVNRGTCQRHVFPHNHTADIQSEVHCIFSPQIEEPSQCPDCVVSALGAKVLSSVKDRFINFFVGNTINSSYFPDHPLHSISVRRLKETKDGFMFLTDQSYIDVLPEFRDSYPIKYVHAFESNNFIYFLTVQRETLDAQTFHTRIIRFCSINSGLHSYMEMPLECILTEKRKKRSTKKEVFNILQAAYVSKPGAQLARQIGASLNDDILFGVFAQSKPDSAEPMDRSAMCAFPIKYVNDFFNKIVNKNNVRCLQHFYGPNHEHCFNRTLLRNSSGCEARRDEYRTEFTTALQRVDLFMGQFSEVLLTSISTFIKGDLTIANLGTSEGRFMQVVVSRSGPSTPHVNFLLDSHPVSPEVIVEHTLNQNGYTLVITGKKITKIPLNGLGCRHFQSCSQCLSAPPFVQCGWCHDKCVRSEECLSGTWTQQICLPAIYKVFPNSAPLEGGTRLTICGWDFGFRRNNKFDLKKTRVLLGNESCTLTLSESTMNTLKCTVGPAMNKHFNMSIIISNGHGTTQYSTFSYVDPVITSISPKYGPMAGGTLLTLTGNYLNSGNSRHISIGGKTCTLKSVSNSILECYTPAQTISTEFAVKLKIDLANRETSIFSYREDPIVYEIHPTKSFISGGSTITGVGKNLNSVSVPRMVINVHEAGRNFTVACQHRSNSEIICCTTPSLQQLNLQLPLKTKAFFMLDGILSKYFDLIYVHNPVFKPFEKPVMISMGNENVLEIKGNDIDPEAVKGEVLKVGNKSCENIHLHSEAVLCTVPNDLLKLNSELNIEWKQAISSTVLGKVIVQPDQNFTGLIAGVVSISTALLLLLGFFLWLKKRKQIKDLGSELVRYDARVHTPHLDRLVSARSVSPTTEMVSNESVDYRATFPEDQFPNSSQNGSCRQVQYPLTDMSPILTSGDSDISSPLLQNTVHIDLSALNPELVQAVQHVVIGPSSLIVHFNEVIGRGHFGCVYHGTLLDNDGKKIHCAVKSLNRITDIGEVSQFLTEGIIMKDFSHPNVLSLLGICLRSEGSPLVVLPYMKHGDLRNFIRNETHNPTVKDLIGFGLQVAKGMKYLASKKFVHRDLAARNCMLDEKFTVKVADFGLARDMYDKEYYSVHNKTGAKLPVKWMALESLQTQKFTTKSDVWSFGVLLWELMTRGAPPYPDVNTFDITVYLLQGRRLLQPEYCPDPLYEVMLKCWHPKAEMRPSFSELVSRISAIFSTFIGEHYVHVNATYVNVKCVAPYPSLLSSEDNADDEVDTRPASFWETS
T2 sequence (Q14012 whole entry): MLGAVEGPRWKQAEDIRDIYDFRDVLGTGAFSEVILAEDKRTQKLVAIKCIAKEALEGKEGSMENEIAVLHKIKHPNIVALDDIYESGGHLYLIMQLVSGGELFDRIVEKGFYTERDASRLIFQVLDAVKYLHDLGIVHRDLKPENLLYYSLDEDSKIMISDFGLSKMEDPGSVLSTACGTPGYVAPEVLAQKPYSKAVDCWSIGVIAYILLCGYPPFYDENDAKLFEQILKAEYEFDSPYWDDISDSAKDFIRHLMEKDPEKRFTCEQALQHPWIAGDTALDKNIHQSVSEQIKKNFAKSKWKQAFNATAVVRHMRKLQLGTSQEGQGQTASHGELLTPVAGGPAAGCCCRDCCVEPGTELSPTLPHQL

inhibition at 1 µM ([1]; replicate Data1): 5.77%
inhibition at 1 µM ([1]; replicate Data2): 6.95%
inhibition at 1 µM ([2]; replicate Data1): 16.8%
inhibition at 1 µM ([2]; replicate Data2): 10.4%
inhibition at 1 µM ([3]; replicate Data1): -18.7%
inhibition at 1 µM ([3]; replicate Data2): -6.35%
inhibition at 1 µM ([4]; replicate Data1): -8.23%
inhibition at 1 µM ([4]; replicate Data2): -5.7%
inhibition at 1 µM ([5]; replicate Data1): 1.3%
inhibition at 1 µM ([5]; replicate Data2): -3.6%
inhibition at 1 µM ([6]; replicate Data1): 19.4%
inhibition at 1 µM ([6]; replicate Data2): 18.5%
inhibition at 1 µM ([7]; replicate Data1): 6.2%
inhibition at 1 µM ([7]; replicate Data2): 5.09%
inhibition at 1 µM ([8]; replicate Data1): -8.67%
inhibition at 1 µM ([8]; replicate Data2): 0.16%
inhibition at 1 µM ([9]; replicate Data1): -3.5%
inhibition at 1 µM ([9]; replicate Data2): -31.8%
inhibition at 1 µM ([10]; replicate Data1): 14.3%
inhibition at 1 µM ([10]; replicate Data2): 0.49%
inhibition at 1 µM ([11]; replicate Data1): 18.3%
inhibition at 1 µM ([11]; replicate Data2): 3.81%
inhibition at 1 µM ([12]; replicate Data1): -5.43%
inhibition at 1 µM ([12]; replicate Data2): -7.15%
inhibition at 1 µM ([13]; replicate Data1): 61.4%
inhibition at 1 µM ([13]; replicate Data2): 58.1%
inhibition at 1 µM ([14]; replicate Data1): -0.22%
inhibition at 1 µM ([14]; replicate Data2): 2.05%
SMILES: Nc1cn2cc(-c3cnc4c(c3)N(C(=O)OC3CCCCC3)CCO4)ccc2n1 [Zharp1-163]

— paper PMC12394658, “Discovery of Zharp1-163 as a dual inhibitor of ferroptosis and necroptosis for the treatment of inflammatory disorders and kidney injury” (Cell Death Discovery, 2025)
